Measurements as given in patent US12522576B2, “Polymorphs of D9-THC naphthoylester” (priority 2019, dated 2026).
≈ marks a conversion by molar mass, not a printed value.

Columns and labels:
[1] = D9 solubility in the liquors at isolation temperature; type: physicochemical; conditions: organic solvent or mixture, thermodynamic from solid
Description: At the end of each experiment, suspensions were equilibrated at the isolation temperature (25 or 5° C.) for at least 18 hours and the solids and liquors separated by centrifugation at the isolation temperature. The Exo/D9/D8 ratio (Exo-D9-THC-naphthoylester impurity/D9-THC-naphthoylester/D8-THC-naphthoylester) was determined in both the isolated solids and the liquors, from which the % Exo-depletion in the isolated solids was calculated. Several solids were also isolated at elevated temperatures to assess the impact of the isolation temperature on Exo-impurity depletion.
In addition, the solubility of D9 in the liquors was determined in most of the explored solvents and used to estimate the yield.

[2] = Competitive ripening (relative thermodynamic stability of non-solvated forms)

Q: Which solubility ([1]; Cyclohexanone/MeOH (1:9), 25 °C, batch 5, Cyclohexanone/MeOH (1:9), seed G/H, heat T 60, isolation T 25, SP 12, 10.0 mL/g) does the source give for `CCCCCc1cc(OC(=O)c2ccc3ccccc3c2)c2c(c1)OC(C)(C)[C@@H]1CCC(C)=C[C@@H]21` [Form B, (6aR,10aR)-6a,7,8,10a-tetrahydro-6,6,9-trimethyl-3-pentyl-6H-dibenzo[b,d]pyran-1-yl ester] here?
A: 7600 µg/mL (≈ 16.2 mM)

Q: What about the solubility ([1]; DMF/MeOH (1:9), 25 °C, batch 5, DMF/MeOH (1:9), seed D, heat T 50, isolation T 25, SP 2, 8.9 mL/g) of the same molecule?
A: 5200 µg/mL (≈ 11.1 mM)

Q: And the solubility ([1]; DMF/MeOH (1:9), 25 °C, batch 5, DMF/MeOH (1:9), seed G, heat T 50, isolation T 25, SP 3, 9.4 mL/g)?
A: 4700 µg/mL (≈ 10 mM)

Q: And the solubility ([1]; DMF/MeOH (1:9), 25 °C, batch 5, DMF/MeOH (1:9), seed G, heat T 60, isolation T 25, SP 9, 10.0 mL/g)?
A: 5100 µg/mL (≈ 10.9 mM)

Q: And the solubility ([1]; DMSO/MeOH (1:9), 25 °C, batch 5, DMSO/MeOH (1:9), seed D, heat T 50, isolation T 25, SP 2, 8.2 mL/g)?
A: 4100 µg/mL (≈ 8.75 mM)

Q: And the solubility ([1]; DMSO/MeOH (1:9), 25 °C, batch 5, DMSO/MeOH (1:9), seed D/G, heat T 60, isolation T 25, SP 9, 10.0 mL/g)?
A: 4200 µg/mL (≈ 8.96 mM)

Q: What about the solubility ([1]; DMSO/MeOH (1:9), 25 °C, batch 5, DMSO/MeOH (1:9), seed G, heat T 50, isolation T 25, SP 4, 9.4 mL/g) of the same molecule?
A: 3700 µg/mL (≈ 7.9 mM)

Q: And the solubility ([1]; DMSO/MeOH (3:7), 25 °C, batch 5, DMSO/MeOH (3:7), seed D, heat T 50, isolation T 25, SP 2, 7.1 mL/g)?
A: 7500 µg/mL (≈ 16 mM)

Q: And the solubility ([1]; DMSO/MeOH (3:7), 25 °C, batch 5, DMSO/MeOH (3:7), seed G, heat T 50, isolation T 25, SP 4, 5.2 mL/g)?
A: 7000 µg/mL (≈ 14.9 mM)

Q: And the solubility ([1]; DMSO/acetone/MeOH (1.5:1.5:7), 25 °C, batch 5, DMSO/acetone/MeOH (1.5:1.5:7), seed D, heat T 50, isolation T 25, SP 2, 5.0 mL/g)?
A: 9100 µg/mL (≈ 19.4 mM)

Q: And the solubility ([1]; DMSO/acetone/MeOH (1.5:1.5:7), 25 °C, batch 5, DMSO/acetone/MeOH (1.5:1.5:7), seed G, heat T 50, isolation T 25, SP 4, 5.1 mL/g)?
A: 7200 µg/mL (≈ 15.4 mM)

Q: And the solubility ([1]; EtOAc/EtOH (1:9), 25 °C, batch 5, EtOAc/EtOH (1:9), seed H, heat T 55, isolation T 25, SP 21, 10.0 mL/g)?
A: 12000 µg/mL (≈ 25.6 mM)

Q: What about the solubility ([1]; EtOAc/MeOH (1:3), 5 °C, batch 5, EtOAc/MeOH (1:3), seed G, heat T 25, isolation T 5, SP 11, 30.0 mL/g) of the same molecule?
A: 11200 µg/mL (≈ 23.9 mM)

Q: What about the solubility ([1]; IPA, 25 °C, batch 5, IPA, seed G/H, heat T 50, isolation T 25, SP 14, 10.0 mL/g) of the same molecule?
A: 7300 µg/mL (≈ 15.6 mM)

Q: What about the solubility ([1]; IPA/water (95:5), 25 °C, batch 5, IPA/water (95:5), seed G/H, heat T 60, isolation T 25, SP 12, 10.0 mL/g) of the same molecule?
A: 4500 µg/mL (≈ 9.6 mM)

Q: What about the solubility ([1]; MEK/IPA (1:9), 25 °C, batch 5, MEK/IPA (1:9), seed G/H, heat T 55, isolation T 25, SP 15, 5.0 mL/g) of the same molecule?
A: 17200 µg/mL (≈ 36.7 mM)

Q: What about the solubility ([1]; MEK/MeOH (1:9), 25 °C, batch 5, MEK/MeOH (1:9), seed G/H, heat T 60, isolation T 25, SP 12, 10.0 mL/g) of the same molecule?
A: 4500 µg/mL (≈ 9.6 mM)

Q: And the solubility ([1]; MEK/MeOH (3:7), 5 °C, batch 5, MEK/MeOH (3:7), seed G, heat T 25, isolation T 5, SP 11, 30.0 mL/g)?
A: 15800 µg/mL (≈ 33.7 mM)

Q: What about the solubility ([1]; MEK/MeOH (3:7), 25 °C, batch 5, MEK/MeOH (3:7), seed G, heat T 25, isolation T 25, SP 7, 30.0 mL/g) of the same molecule?
A: 16800 µg/mL (≈ 35.8 mM)

Q: And the solubility ([1]; MeOH, 25 °C, batch 5, MeOH, seed E/G, heat T 50, isolation T 25, SP 3, 9.8 mL/g)?
A: 5000 µg/mL (≈ 10.7 mM)

Q: What about the solubility ([1]; Toluene/EtOH (5:95), 25 °C, batch 5, Toluene/EtOH (5:95), seed H, heat T 55, isolation T 25, SP 21, 12.0 mL/g) of the same molecule?
A: 10300 µg/mL (≈ 22 mM)

Q: What about the solubility ([1]; Toluene/MeOH (1:9), 5 °C, batch 5, Toluene/MeOH (1:9), seed G, heat T 40, isolation T 5, SP 10, 30.0 mL/g) of the same molecule?
A: 8700 µg/mL (≈ 18.6 mM)

Q: And the solubility ([1]; crystallisation liquors over suspended solid, 5 °C, batch 5, p-Xylene/MeOH (1:9), seed G, heat T 25, isolation T 5, SP 11, 40.0 mL/g)?
A: 9200 µg/mL (≈ 19.6 mM)

Q: And the solubility ([1]; crystallisation liquors over suspended solid, 25 °C, batch 2, IPA/water (95:5), seed G/H, heat T 55, isolation T 25, SP 13, 10.0 mL/g)?
A: 5600 µg/mL (≈ 11.9 mM)

Q: What about the solubility ([1]; crystallisation liquors over suspended solid, 25 °C, batch 2, IPA/water (99:1), seed G/H, heat T 55, isolation T 25, SP 13, 10.0 mL/g) of the same molecule?
A: 7300 µg/mL (≈ 15.6 mM)

Q: And the solubility ([1]; crystallisation liquors over suspended solid, 25 °C, batch 5, Anisole/MeOH (1:9), seed G, heat T 40, isolation T 25, SP 8, 30.0 mL/g)?
A: 9600 µg/mL (≈ 20.5 mM)

Q: And the solubility ([1]; crystallisation liquors over suspended solid, 25 °C, batch 5, Cyclohexanone/IPA (1:9), seed G/H, heat T 45, isolation T 25, SP 15, 2.5 mL/g)?
A: 59200 µg/mL (≈ 126 mM)

Q: And the solubility ([1]; crystallisation liquors over suspended solid, 25 °C, batch 5, EtOAc/IPA (1:9), seed G/H, heat T 55, isolation T 25, SP 15, 7.4 mL/g)?
A: 15100 µg/mL (≈ 32.2 mM)

Q: What about the solubility ([1]; crystallisation liquors over suspended solid, 25 °C, batch 5, EtOAc/MeOH (1:3), seed G, heat T 40, isolation T 25, SP 8, 30.0 mL/g) of the same molecule?
A: 11300 µg/mL (≈ 24.1 mM)

Q: And the solubility ([1]; crystallisation liquors over suspended solid, 25 °C, batch 5, EtOH, seed E/G, heat T 50, isolation T 25, SP 3, 9.6 mL/g)?
A: 6900 µg/mL (≈ 14.7 mM)

Q: And the solubility ([1]; crystallisation liquors over suspended solid, 25 °C, batch 5, MEK/EtOH (1:9), seed G/H, heat T 55, isolation T 25, SP 15, 10.0 mL/g)?
A: 11200 µg/mL (≈ 23.9 mM)

Q: What about the solubility ([1]; crystallisation liquors over suspended solid, 25 °C, batch 5, Toluene/MeOH (1:9), seed G, heat T 40, isolation T 25, SP 8, 30.0 mL/g) of the same molecule?
A: 8400 µg/mL (≈ 17.9 mM)

Q: What about the solubility ([1]; crystallisation liquors over suspended solid, 25 °C, batch 5, Toluene/MeOH (3:7), seed G, heat T 40, isolation T 25, SP 3, 5.5 mL/g) of the same molecule?
A: 53500 µg/mL (≈ 114 mM)

Q: And the solubility ([1]; crystallisation liquors over suspended solid, 25 °C, batch 5, n-BuOH, seed E/G, heat T 50, isolation T 25, SP 3, 9.8 mL/g)?
A: 14800 µg/mL (≈ 31.6 mM)

Q: What about the solubility ([1]; crystallisation liquors over suspended solid, 25 °C, batch 5, n-BuOH, seed G, heat T 40, isolation T 25, SP 8, 10.0 mL/g) of the same molecule?
A: 16700 µg/mL (≈ 35.6 mM)

Q: And the solubility ([1]; liquors of the equilibrated crystallisation suspension, 25 °C, batch 2, IPA/water (95:5), seed G/H, heat T 55, isolation T 25, 10.0 mL/g, SP 13, Exp 43)?
A: 5600 µg/mL (≈ 11.9 mM)

Q: What about the solubility ([1]; liquors of the equilibrated crystallisation suspension, 25 °C, batch 2, IPA/water (99:1), seed G/H, heat T 55, isolation T 25, 10.0 mL/g, SP 13, Exp 45) of the same molecule?
A: 7300 µg/mL (≈ 15.6 mM)

Q: And the solubility ([1]; liquors of the equilibrated crystallisation suspension, 25 °C, batch 5, Cyclohexanone/EtOH (1:9), seed G/H, heat T 55, isolation T 25, 5.0 mL/g, SP 16, Exp 32)?
A: 21100 µg/mL (≈ 45 mM)

Q: And the solubility ([1]; liquors of the equilibrated crystallisation suspension, 25 °C, batch 5, Cyclohexanone/IPA (1:9), seed G/H, heat T 45, isolation T 25, 2.5 mL/g, SP 15, Exp 39)?
A: 59200 µg/mL (≈ 126 mM)

Q: And the solubility ([1]; liquors of the equilibrated crystallisation suspension, 25 °C, batch 5, Cyclohexanone/MeOH (1:9), seed G/H, heat T 60, isolation T 25, 10.0 mL/g, SP 12, Exp 30)?
A: 7600 µg/mL (≈ 16.2 mM)

Q: And the solubility ([1]; liquors of the equilibrated crystallisation suspension, 25 °C, batch 5, EtOAc/EtOH (1:9), seed H, heat T 55, isolation T 25, 10.0 mL/g, SP 21, Exp 28)?
A: 12000 µg/mL (≈ 25.6 mM)

Q: What about the solubility ([1]; liquors of the equilibrated crystallisation suspension, 25 °C, batch 5, EtOAc/IPA (1:9), seed G/H, heat T 55, isolation T 25, 7.4 mL/g, SP 15, Exp 35) of the same molecule?
A: 15100 µg/mL (≈ 32.2 mM)

Q: What about the solubility ([1]; liquors of the equilibrated crystallisation suspension, 25 °C, batch 5, IPA/water (95:5), seed G/H, heat T 60, isolation T 25, 10.0 mL/g, SP 12, Exp 29) of the same molecule?
A: 4500 µg/mL (≈ 9.6 mM)

Q: And the solubility ([1]; liquors of the equilibrated crystallisation suspension, 25 °C, batch 5, IPA, seed G/H, heat T 50, isolation T 25, 10.0 mL/g, SP 14, Exp 31)?
A: 7300 µg/mL (≈ 15.6 mM)

Q: What about the solubility ([1]; liquors of the equilibrated crystallisation suspension, 25 °C, batch 5, MEK/EtOH (1:9), seed G/H, heat T 55, isolation T 25, 10.0 mL/g, SP 15, Exp 40) of the same molecule?
A: 11200 µg/mL (≈ 23.9 mM)

Q: What about the solubility ([1]; liquors of the equilibrated crystallisation suspension, 25 °C, batch 5, MEK/IPA (1:9), seed G/H, heat T 55, isolation T 25, 5.0 mL/g, SP 15, Exp 25) of the same molecule?
A: 17200 µg/mL (≈ 36.7 mM)

Q: What about the solubility ([1]; liquors of the equilibrated crystallisation suspension, 25 °C, batch 5, MEK/MeOH (1:9), seed G/H, heat T 60, isolation T 25, 10.0 mL/g, SP 12, Exp 27) of the same molecule?
A: 4500 µg/mL (≈ 9.6 mM)

Q: What about the solubility ([1]; liquors of the equilibrated crystallisation suspension, 25 °C, batch 5, Toluene/EtOH (5:95), seed H, heat T 55, isolation T 25, 12.0 mL/g, SP 21, Exp 33) of the same molecule?
A: 10300 µg/mL (≈ 22 mM)

Q: What about the solubility ([1]; n-BuOH/MeOH (1:3), 25 °C, batch 5, n-BuOH/MeOH (1:3), seed E/G, heat T 50, isolation T 25, SP 3, 9.4 mL/g) of the same molecule?
A: 5600 µg/mL (≈ 11.9 mM)

Q: What about the solubility ([1]; n-BuOH/MeOH (1:3), 25 °C, batch 5, n-BuOH/MeOH (1:3), seed G, heat T 60, isolation T 25, SP 9, 10.0 mL/g) of the same molecule?
A: 6000 µg/mL (≈ 12.8 mM)

Q: And the solubility ([1]; p-Xylene/MeOH (1:9), 25 °C, batch 5, p-Xylene/MeOH (1:9), seed G, heat T 25, isolation T 25, SP 7, 40.0 mL/g)?
A: 9800 µg/mL (≈ 20.9 mM)

Q: And the Relative thermodynamic stability [2]?
A: metastable form

Q: And the “Nature (thermodynamic stability of crystal form)” value ([2]; Table 6 summary)?
A: Metastable
